Measurements from patent publication US11318152B2, “Pharmaceutical agent for improving autism spectrum disorder and mental disease” (MATSUTANI CHEMICAL INDUSTRY CO., LTD., priority 2018, dated 2022).

Columns and labels:
[1] = test system: C57BL/6J male mice; experiment: Sociality test (social interaction test); type: in vivo; details: 10 minutes, vs saline, p<0.05 (FIG. 7B)
Method: The sociality test (also called the social interaction test) is an open field test using 2 individual mice that meet for the first time in order to investigate the sociality. The fundamental procedure of the sociality test is the same as that of the open field test using 1 individual member. However, at the time of starting the behavioral observation, mice are placed at the opposing corners of the field and their moving is recorded as moving picture for 10 minutes. This test is intended to evaluate the sociality of mice by measuring frequencies and times of social behaviors such as sniffing, grooming, attack, and tail-rattling between 2 individual members. C57BL/6J male mice (8-week old) were bred for 1 week under a free-feeding condition with a light-dark cycle of 12 hours and were subjected to the open field and sociality tests. Handling and gavage training was conducted for 4 days before the test. In order to evaluate the sociality with a same-sex mouse, each mouse was placed together with a mouse (new mouse) which it met for the first time in a breeding cage (27×27×20 cm^3) and an accumulation time of the exploratory behavior against the new mouse during an exploratory behavior time of 10 minutes was measured.

[2] = test system: vasopressin (AVP) neurons; experiment: double immunostaining for vasopressin and c-Fos after oral administration; type: in vivo, C57BL/6J male mice; details: oral 3 g/kg, 90 minutes after administration
Method: (§1) For brain regions that are activated by the oral administration of D-allulose, the expression levels of a neuronal activation marker (c-Fos) were analyzed by the immunostaining method. c-Fos is one of immediate early genes, is a nuclear protein whose expression level increases along with activation of nerves, and thus can be utilized as a neuronal activation marker. C57BL/6J male mice were used as experimental animals and were acclimatized to an environment through preliminary breeding and handling for 1 week or more in individual cages. Saline or D-allulose (1 or 3 g/kg) was orally intragastrically administered to the mice which were fasted for one night, and 90 minutes after the administration, the mice were perfusion fixed in a 4% paraformaldehyde solution and the brains were resected. The organs were postfixed in a 4% paraformaldehyde solution to prepare frozen section specimens. This frozen section specimen was used to immunostain c-Fos. In the case of double immunostaining for oxytocin/vasopressin and c-Fos, the perfusion fixation and the postfixation were conducted in a mixed solution of 4% paraformaldehyde and 0.2% picric acid. In the experiment for analyzing c-Fos positive neurons in the vasopressin (AVP) neurons of paraventricular nucleus (PVN) (FIG. 2C and FIG. 2D), C57BL/6J male mice of saline group: n=4, 3 g/kg D-allulose group: n=6 were used. In the experiment for analyzing c-Fos positive neurons in the oxytocin (OXT) neurons or vasopressin (AVP) neurons of paraventricular nucleus (PVN) (FIG. 3A and FIG. 3B), C57BL/6J male mice of saline group n=4, 3 g/kg D-allulose group: n=6 were used. In the experiment for analyzing c-Fos positive neurons in the oxytocin (OXT) neurons or vasopressin (AVP) neurons of the new region (FIG. 4A and FIG. 4B), C57BL/6J male mice of saline group: n=4, 3 g/kg D-allulose group: n=6 were used. The obtained results are represented by the average values and the standard errors, the statistical testing used the unpaired t-test, * is described by the P value of less than 5% and ** is described by the P value of less than 1%.

[3] = test system: vasopressin mRNA; experiment: vasopressin mRNA expression in hypothalamus, quantitative real-time PCR; type: in vivo, C57BL/6J male mice; details: oral 3 g/kg, 2 hours after administration, vs saline-administered group, relative to 36b4 (FIG. 5)
Method: (§2) C57BL/6J male mice (saline group: n=8, D-allulose group: n=9) were used as experimental animals and were acclimatized to an environment through preliminary breeding and handling for 1 week or more in individual cages. Saline or D-allulose (3 g/kg) was orally intragastrically administered to the mice which were fasted for one night, and 2 hours after the administration, the brain's hypothalamus was resected under anesthesia. cDNA was synthesized using the total RNA in hypothalamus as a template. The mRNA expression levels of oxytocin and vasopressin were quantified by the quantitative real-time PCR method. As the housekeeping gene, 36b4 was used. The mRNA expression levels were quantified in accordance with the ΔΔCt method. The target gene expression level in each sample was corrected with the expression level of 36b4 to obtain the relative expression level to 36b4 (ΔCT=the CT value of 36b4−the CT value of the target gene, the relative expression level=2ΔCT).
(§3) Moreover, the mRNA expression level ratio with the average value of the relative expression level of the saline group being set to 1 (the average value of the relative gene expression level of the D-allulose group to 36b4/the average value of the relative expression level of the saline group to 36b4) was obtained to analyze the change in gene expression level in the administration of D-allulose. […]

[4] = test system: C57BL/6J male mice; experiment: Open field test; type: in vivo; details: 5 minutes exploration
Text: The open field test is a test that evaluates spontaneous activity, anxiety-like behavior, and the like in a novel environment by measuring the distance traveled, the number of rearings, the stereotyped behavior, the time spent in the center section, and the like under the novel environment. A mouse is placed in an open field, which is a novel and bright environment for a mouse, and is allowed to freely explore the open field for a certain period of time. The open field has a circular or square shape, and the size, in the case of a square, varies from a side of over 1 m to 30 cm or less. The experiment time is approximately 5 minutes in general, and significant overactivity, dormancy, and the like can be detected through observation for such a short period of time. In addition, a change in the behavior of an animal over time under a novel environment can be observed by recording for a long period of time. Since it is said that mice get accustomed to the open field environment by 30 minutes to approximately 2 hours, the experiment time is often set between 30 minutes to 3 hours. Also, the open field test is often used for analyzing the phenotyping of gene-modified mice and testing the reactivity to pharmaceutical agents. […] The duration of time spent in the center square (9×9 […]) during an exploratory behavior time of 5 minutes was measured.

[5] = test system: paraventricular nucleus (PVN), supraoptic nucleus (SON) and new region of the hypothalamus; experiment: c-Fos immunostaining of hypothalamus sections after oral administration; type: in vivo, C57BL/6J male mice; details: oral 1 or 3 g/kg, fasted mice, 90 minutes after administration, vs saline (FIG. 1A)
Method: For brain regions that are activated by the oral administration of D-allulose, the expression levels of a neuronal activation marker (c-Fos) were analyzed by the immunostaining method. c-Fos is one of immediate early genes, is a nuclear protein whose expression level increases along with activation of nerves, and thus can be utilized as a neuronal activation marker. C57BL/6J male mice were used as experimental animals and were acclimatized to an environment through preliminary breeding and handling for 1 week or more in individual cages. Saline or D-allulose (1 or 3 g/kg) was orally intragastrically administered to the mice which were fasted for one night, and 90 minutes after the administration, the mice were perfusion fixed in a 4% paraformaldehyde solution and the brains were resected. The organs were postfixed in a 4% paraformaldehyde solution to prepare frozen section specimens. This frozen section specimen was used to immunostain c-Fos. In the case of double immunostaining for oxytocin/vasopressin and c-Fos, the perfusion fixation and the postfixation were conducted in a mixed solution of 4% paraformaldehyde and 0.2% picric acid. Note that in the experiment for analyzing c-FOS expression level (FIG. 1A to FIG. 1D), C57BL/6J male mice of saline group: n=7, 1 g/kg and 3 g/kg D-allulose group: n=5 each were used. […]

[6] = test system: oxytocin mRNA; experiment: oxytocin mRNA expression in hypothalamus, quantitative real-time PCR; type: in vivo, C57BL/6J male mice; details: oral 3 g/kg, 2 hours after administration, vs saline-administered group, relative to 36b4 (FIG. 5)
Method: as §2, §3

[7] = test system: oxytocin (OXT) neurons; experiment: double immunostaining for oxytocin and c-Fos after oral administration; type: in vivo, C57BL/6J male mice; details: oral 3 g/kg, 90 minutes after administration
Method: as §1, with “in the oxytocin (OXT) neurons of paraventricular nucleus (PVN) (FIG. 2A and FIG. 2B), C57BL/6J male mice of saline group: n=4, 3 g/kg D-allulose group: n=6 were used. In the experiment for analyzing c-Fos positive neurons in the vasopressin (AVP)” for “in the vasopressin (AVP)”, “were used. […]” for “were used. The obtained results are represented by the average values and the standard errors, the statistical testing used the unpaired t-test, * is described by the P value of less than 5% and ** is described by the P value of less than 1%.”

Structure (SMILES): O=C(CO)[C@H](O)[C@H](O)[C@H](O)CO [D-allulose]
- social behavior: accumulation time of exploratory behavior against the new mouse ([1]; 1 g/kg oral): significantly facilitated
- social behavior: accumulation time of exploratory behavior against the new mouse ([1]; 3 g/kg oral): significantly facilitated
- activation (c-Fos) of the vasopressin (AVP) neuron of the paraventricular nucleus (PVN) ([2]; vs saline (FIGS. 2C, 2D)): activated
- activation (c-Fos) of the vasopressin neurons of the supraoptic nucleus (SON) ([2]; vs saline (FIGS. 3A, 3B)): activated
- activation (c-Fos) of the vasopressin neurons in the new region of the hypothalamus ([2]; vs saline (FIGS. 4A, 4B)): activated
- expression of the mRNA of vasopressin in the hypothalamus [3]: significantly enhanced
- anxiety behavior: duration of time spent in the center square ([4]; 1 g/kg oral 30 minutes before test, vs saline (FIG. 6B)): no significant result
- anxiety behavior: duration of time spent in the center square ([4]; 3 g/kg oral 30 minutes before test, vs saline, p<0.05 (FIG. 6B)): significantly improved
- c-Fos expression level in the paraventricular nucleus (PVN), the supraoptic nucleus (SON), and a new region of the hypothalamus [5]: significantly facilitated
- expression of the mRNA of oxytocin in the hypothalamus [6]: significantly enhanced
- c-Fos expression level in the oxytocin (OXT) neuron of the paraventricular nucleus (PVN) ([7]; vs saline (FIGS. 2A, 2B)): significantly increased
- activation (c-Fos) of the oxytocin neurons of the supraoptic nucleus (SON) ([7]; vs saline (FIGS. 3A, 3B)): activated
- activation (c-Fos) of the oxytocin neurons in the new region of the hypothalamus ([7]; vs saline (FIGS. 4A, 4B)): activated
